Among the data in US10544136B2, “Modulators of sphingosine phosphate receptors” (The Scripps Research Institute, priority 2008, dated 2020) are EC50 values, retold here.

Structures are written as SMILES. Where two headings read alike, the source gives them in different places. Bounds are passed on as bounds.

One experiment concerns the target S1P1 (Homo sapiens (Human), UniProt P21453). Kind of experiment: S1P1 agonist assay (Ec50 S1P1Ag). Type of experiment: cell-based. From the text: The exact dosage will depend upon the activity of the compound, mode of administration, on the therapy desired, form in which administered, the subject to be treated and the body weight of the subject to be treated, and the preference and experience of the physician or veterinarian in charge. S1P1 agonist bioactivity of the compounds of the invention can be determined by use of an in vitro assay system which measures the activation of S1P1, which can be expressed as EC50 values, as are well known in the art inhibitors of the invention can be determined by the method described in the Examples.

The target of another experiment is S1P3 (Homo sapiens (Human), UniProt Q99500). Kind of experiment: S1P3 agonist assay (Ec50 S1P3Ag). The note with it: read-out: Ec 50 (S1P3Ag). Type of experiment: cell-based.
Sequence of S1P3 (Q99500 whole entry, species assumed): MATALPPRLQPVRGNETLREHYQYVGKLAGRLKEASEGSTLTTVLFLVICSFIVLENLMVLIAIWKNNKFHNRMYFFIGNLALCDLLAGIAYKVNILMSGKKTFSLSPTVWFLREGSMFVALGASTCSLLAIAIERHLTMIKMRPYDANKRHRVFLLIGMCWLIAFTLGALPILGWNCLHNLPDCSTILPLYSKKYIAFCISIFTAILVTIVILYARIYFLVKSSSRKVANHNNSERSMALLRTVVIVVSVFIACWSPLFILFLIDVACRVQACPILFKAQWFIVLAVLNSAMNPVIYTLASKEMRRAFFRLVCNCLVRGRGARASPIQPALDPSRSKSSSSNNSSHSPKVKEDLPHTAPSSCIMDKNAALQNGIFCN

Sequence of S1P1 (P21453 whole entry): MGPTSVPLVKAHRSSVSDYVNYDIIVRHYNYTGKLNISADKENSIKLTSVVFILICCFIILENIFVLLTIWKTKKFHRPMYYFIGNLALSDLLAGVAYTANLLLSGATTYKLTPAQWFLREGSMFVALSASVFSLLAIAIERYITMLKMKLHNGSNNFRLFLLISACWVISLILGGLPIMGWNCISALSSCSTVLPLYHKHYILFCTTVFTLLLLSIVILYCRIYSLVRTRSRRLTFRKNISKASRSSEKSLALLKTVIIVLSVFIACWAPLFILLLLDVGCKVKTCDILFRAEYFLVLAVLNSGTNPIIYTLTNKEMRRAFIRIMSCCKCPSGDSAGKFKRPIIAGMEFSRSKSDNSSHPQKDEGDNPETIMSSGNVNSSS

For the compound `FC(F)(F)c1ccc(-c2noc(Cc3ccncc3)n2)cc1` [Compound 5], the figures for the EC50 at S1P1 (unit μM/uM) and on S1P3 were 4.1 µM and 5.1 µM, respectively. Consider `FC(F)(F)c1ccc(-c2noc(-c3ccnc(Cl)c3)n2)cc1` [Compound 7], for which the results for the EC50 on S1P1 and at S1P3 were 0.27 µM and 0.782 µM, respectively. On the same counts, the results for `CCCOc1ccc(-c2nc(-c3ccncc3)no2)cc1` [Compound 10] are 0.246 µM and 3.33 µM. For `CC(C)Cc1ccc(C(C)c2nc(-c3ccc(S(N)(=O)=O)cc3)no2)cc1` (stereo not drawn) [Compound 16], the EC50 at S1P1 is 0.0033 µM; at S1P3, 1.2 µM.

As for `COc1cc(-c2noc(-c3ccnc(C)c3)n2)ccc1C` [Compound 23], the EC50 at S1P1 stood at 3.3 µM; on S1P3, 3.5 µM. On the same counts, the results for `CCOc1ccc(-c2nc(-c3ccncc3)no2)cc1OCC` [Compound 35] are 0.0037 µM and 0.661 µM. As for `CCOc1ccc(-c2nc(-c3ccnc(N)c3)no2)cc1OCC` [Compound 36], the EC50 at S1P1 came to 0.0017 µM; at S1P3, 0.387 µM. On the same counts, the results for `CCOc1cc(-c2nc(-c3ccncc3)no2)ccc1OC` [Compound 50] are 0.064 µM and 2.7 µM. On the same counts, the results for `CC(C)(C)c1cc(-c2nc(-c3ccncc3)no2)cc(C(C)(C)C)c1` [Compound 53] are 0.156 µM and 0.327 µM. With `COc1ccc(-c2nc(-c3ccncc3)no2)cc1OC1CCCC1` [Compound 54], the EC50 turned out to be 0.0716 µM at S1P1 and 0.322 µM at S1P3. On the same counts, the results for `CC(C)Cc1ccc(C(C)c2nc(-c3ccncc3)no2)cc1` (stereo not drawn) [Compound 55] are 0.113 µM and 0.448 µM. As for `CCOc1ccc(-c2nc(-c3cncc(C)c3)no2)cc1OCC` [Compound 58], the EC50 is 0.0117 µM at S1P1 and 3.4 µM on S1P3. On the same counts, the results for `FC(F)(F)c1cc(-c2nc(-c3ccncc3)no2)ccc1-c1ccccc1` [Compound 59] are 0.0108 µM and 5.6 µM. On the same counts, the results for `Cc1cnccc1-c1noc(-c2ccc(-c3ccccc3)c(C(F)(F)F)c2)n1` [Compound 60] are 0.001 µM and 0.803 µM. In the case of `Nc1cc(-c2noc(-c3ccc(-c4ccccc4)c(C(F)(F)F)c3)n2)ccn1` [Compound 61], the EC50 at S1P1 was 0.00078 µM; on S1P3, 1.32 µM. Regarding `Cc1cncc(-c2noc(-c3ccc(-c4ccccc4)c(C(F)(F)F)c3)n2)c1` [Compound 62], the EC50 stood at 0.005 µM on S1P1 and 24 µM at S1P3 (unit μM). For the compound `FC(F)(F)c1cc(-c2nc(-c3ccncc3)no2)cc(C(F)(F)F)c1` [Compound 104], the figures for the EC50 on S1P1 and on S1P3 were 0.264 µM and 3.5 µM, respectively. On the same counts, the results for `FC(F)(F)c1cc(Br)cc(-c2nc(-c3ccncc3)no2)c1` [Compound 106] are 0.063 µM and 8 µM. As to `CCOc1ccc(-c2nc(-c3cccc4[nH]ccc34)no2)cc1OCC` [Compound 110], the EC50 was found to be 0.00052 µM at S1P1 and 0.823 µM at S1P3. On the same counts, the results for `CCOc1ccc(-c2nc(-c3cccc4c3CCN4)no2)cc1OCC` [Compound 123] are 0.0002 µM and 0.529 µM. Consider `CCOc1ccc(-c2nc(-c3cccc(CN(C)C)c3C)no2)cc1OCC` [Compound 129], for which the values for the EC50 at S1P1 and at S1P3 were 0.0041 µM and 5.2 µM, respectively. On the same counts, the results for `CCOc1ccc(-c2nc(-c3cccc4c3CCN4C)no2)cc1OCC` [Compound 151] are 0.0059 µM and 2.4 µM. For the compound `CCOc1ccc(-c2nc(-c3cccc(CN4CCCC4)c3C)no2)cc1OCC` [Compound 152], the figures for the EC50 at S1P1 and at S1P3 were 0.006 µM and 2.1 µM, respectively.

On to `CCOc1ccc(-c2nc(-c3ccc4[nH]ccc4c3)no2)cc1OCC` [Compound 153], for which the EC50 at S1P1 was 0.0069 µM; on S1P3, 2 µM. On the same counts, the results for `CCOc1ccc(-c2nc(-c3ccc4c(c3)CCN4)no2)cc1OCC` [Compound 154] are 0.0031 µM and 1.8 µM.

On to `CCOc1ccc(-c2nc(-c3ccnc4[nH]ccc34)no2)cc1OCC` [Compound 167], for which the results for the EC50 on S1P1 and on S1P3 were 0.0022 µM and 2.2 µM, respectively. On the same counts, the results for `CCOc1ccc(-c2nc(-c3cccc(CO)c3C)no2)cc1OCC` [Compound 177] are 0.0008 µM and 0.774 µM. On to `CCOc1ccc(-c2nc(-c3ccc(C)c(C)c3)no2)cc1OCC` [Compound 184], for which the EC50 turned out to be 0.0117 µM on S1P1 and 2 µM at S1P3.

Take `CCOc1ccc(-c2nc(-c3ccc(CO)cc3)no2)cc1OCC` [Compound 186]: the EC50 on S1P1 was 0.0042 µM; on S1P3, 0.606 µM. On S1P1 (unit μM/uM), `CCOc1ccc(-c2nc(-c3ccc4[nH]cc(CN5CCCC5)c4c3)no2)cc1OCC` [Compound 223] showed an EC50 of 10 µM.

Consider `CCOc1ccc(-c2nc(-c3ccc4[nH]cc(CNCCN(CC)CC)c4c3)no2)cc1OCC` [Compound 224], for which the EC50 on S1P1 stood at 0.485 µM. Same read-out and setting: under `CCOc1ccc(-c2nc(-c3cncc(CO)c3)no2)cc1OCC` [Compound 225] stands 0.0245 µM; under `CCOc1ccc(-c2nc(-c3ccnc(CNCCN(CC)CC)c3)no2)cc1OCC` [Compound 226], 0.0027 µM. On the same count and under the same terms, the value for `CCOc1ccc(-c2nc(-c3cccc4c3CCC4=O)no2)cc1OCC` [Compound 227] was 0.0213 µM; that for `CCOc1ccc(-c2nc(-c3cccc4[nH]cc(CN5CC[C@H](O)C5)c34)no2)cc1OCC` [Compound 230] was 0.3 µM.

Compound `CCOc1ccc(-c2nc(-c3cccc4[nH]cc(CN5CC[C@@H](O)C5)c34)no2)cc1OCC` [Compound 231] showed an EC50 at S1P1 of 0.12 µM.

On S1P1, `CCOc1ccc(-c2nc(-c3cccc4c3CCN4CCN(CC)CC)no2)cc1OCC` [Compound 232] came in with an EC50 of 0.0939 µM.

With `CCOc1ccc(-c2nc(-c3cccc4[nH]cc(CNC)c34)no2)cc1OCC` [Compound 233], at S1P1, the EC50 came to 0.581 µM. The same measure, in the same setting: under `CCOc1ccc(-c2nc(-c3cccc4c3CCN4CCO)no2)cc1OCC` [Compound 234] stands less than 0.0005 µM; under `CCOc1ccc(-c2nc(-c3ccnc(CN4CC[C@@H](O)C4)c3)no2)cc1OCC` [Compound 235], 0.0821 µM; under `CCOc1ccc(-c2nc(-c3ccc4[nH]cc(CNCCN(C)C)c4c3)no2)cc1OCC` [Compound 238], 0.686 µM. The compound `CCOc1ccc(-c2nc(-c3ccc4[nH]cc(CNCCO)c4c3)no2)cc1OCC` [Compound 239] came in with an EC50 at S1P1 of 0.867 µM. The same measure, in the same setting: under `CCOc1ccc(-c2nc(-c3ccc4[nH]cc(CN(C)CCO)c4c3)no2)cc1OCC` [Compound 240] stands 3.1 µM. The same measure, in the same setting: under `CCOc1ccc(-c2nc(-c3ccnc(C(=O)O)c3)no2)cc1OCC` [Compound 241] stands 0.0956 µM; under `CCOc1ccc(-c2nc(-c3ccnc(C(=O)NCCO)c3)no2)cc1OCC` [Compound 242], 0.0265 µM; under `CCOc1ccc(-c2nc(-c3cccc4c3CCC4NCCN(CC)CC)no2)cc1OCC` (stereo not drawn) [Compound 243], 0.0007 µM. Same read-out and setting: the value for `CCOc1ccc(-c2nc(-c3cccc4c3CCC4N3CC[C@@H](O)C3)no2)cc1OCC` (stereo partly drawn) [Compound 250] was 0.0061 µM. In turn, `CCOc1ccc(-c2nc(-c3ccc(CNCCO)cc3C)no2)cc1OCC` [Compound 252] showed an EC50 at S1P1 of 0.0101 µM. The same measure, in the same setting: the value for `CCOc1ccc(-c2nc(-c3ccc4occc4c3)no2)cc1OCC` [Compound 253] was 0.0266 µM; that for `CCOc1ccc(-c2noc(-c3ccncc3)n2)cc1OCC` [Compound 257] was 0.0073 µM; that for `CCOc1ccc(-c2nc(-c3ccc4c(c3)CCN4CCCO)no2)cc1OCC` [Compound 258] was 0.001 µM. Same read-out and setting: the value for `CC(C)Oc1ccc(-c2nc(-c3cccc4c3CCC4O)no2)cc1C(F)(F)F` (stereo not drawn) [Compound 259, 4-(5-(4-isopropoxy-3-(trifluoromethyl)phenyl)-1,2,4-oxadiazol-3-yl)-2,3-dihydro-1H-inden-1-ol] was less than 0.0005 µM; that for `CCOc1ccc(-c2nc(-c3cccc4c3CCC4O)no2)cc1C(F)(F)F` (stereo not drawn) [Compound 260, 4-(5-(4-ethoxy-3-(trifluoromethyl)phenyl)-1,2,4-oxadiazol-3-yl)-2,3-dihydro-1H-inden-1-ol] was less than 0.0005 µM. Same read-out and setting: the value for `CCOc1ccc(-c2nc(-c3cccc4c3CCC4O)no2)cc1C#N` (stereo not drawn) [Compound 262, 2-ethoxy-5-(3-(1-hydroxy-2,3-dihydro-1H-inden-4-yl)-1,2,4-oxadiazol-5-yl)benzonitrile] was less than 0.0005 µM.

For the compound `CC(C)Oc1ccc(-c2nc(-c3cccc4c3CCC4NCCO)no2)cc1C(F)(F)F` (stereo not drawn) [Compound 263, 2-(4-(5-(4-isopropoxy-3-(trifluoromethyl)phenyl)-1,2,4-oxadiazol-3-yl)-2,3-dihydro-1H-inden-1-ylamino)ethanol], the EC50 on S1P1 turned out to be 0.01 µM. With `CCOc1ccc(-c2nc(-c3cccc4c3CCC4NCCO)no2)cc1C(F)(F)F` (stereo not drawn) [Compound 264, 2-(4-(5-(4-ethoxy-3-(trifluoromethyl)phenyl)-1,2,4-oxadiazol-3-yl)-2,3-dihydro-1H-inden-1-ylamino)ethanol], at S1P1, the EC50 was found to be 0.008 µM.

For the compound `CCOc1ccc(-c2nc(-c3cccc4c3CCC4O)no2)cc1[N+](=O)[O-]` (stereo not drawn) [Compound 266, 4-(5-(4-ethoxy-3-nitrophenyl)-1,2,4-oxadiazol-3-yl)-2,3-dihydro-1H-inden-1-ol], on S1P1, the EC50 stood at 0.224 µM. With `CCOc1ccc(-c2ncc(-c3ccncc3)o2)cc1OCC` [Compound 268], the EC50 on S1P1 came out at 0.0107 µM.

Compound `CCOc1ccc(-c2cc(-c3ccncc3)no2)cc1OCC` [Compound 269] gave an EC50 at S1P1 of 0.112 µM. Still for that read-out and setting: the value for `CC(C)Oc1ccc(-c2ncc(-c3cccc4c3CCC4O)o2)cc1C#N` (stereo not drawn) [Compound 270] was 0.0025 µM; that for `CC(C)Oc1ccc(-c2ncc(-c3cccc4c3CCC4NCCO)o2)cc1C#N` (stereo not drawn) [Compound 271] was less than 0.0005 µM.
